Reference: PubChem BioAssay AID2060887 (Molecular Pharmacology Branch, DTP, NCI, 2025)

Test system: 782815-120-R-J1-PDC complex spheroid viability
Assay: Anticancer human tumor 782815-120-R-J1-PDC patient-derived colon adenocarcinoma cell line growth inhibition [RAS]
Conditions: for IC50: curve of first compound; for viability, T/C: stronger effect = lower value
Excerpt: RAS pathway inhibitors in Combinations in Complex Spheroids
A high-throughput screen of multi-cell type tumor spheroids was designed to identify active combinations of RAS pathway inhibitors and targeted small molecules. Complex spheroids include a stromal component modeled by human endothelial cells (HUVEC) and fibroblasts modeled by human mesenchymal stem cells (MSCs). The concentration ranges selected for each drug and investigational agent were based upon clinically achievable concentrations if the clinical Cmax of the agent was known.
Compounds. The drugs and investigational agents: abemaciclib (NSC768073), cobimetinib (NSC768068), divarasib (GDC6063, NSC841802), docetaxel (NSC628503), GDC-1971 (RLY-1971, NSC841576), gemcitabine (NSC613327), inavolisib (NSC800729), ipatasertib (NSC767898), KB-0742 (NSC834161), MRTX-1133 (NSC836407), osimertinib (NSC779217), RMC-4630 (NSC839698), RMC-6236 (NSC851965), RMC-6291 (NSC852671), Ro-3306 (NSC812927), sapanisertib (NSC764658), SN-38 (NSC673596), staurosporine (NSC755774), SY5609 (NSC837396), and tovorafenib (DAY101, NSC766906), were obtained from the National Cancer Institute (NCI) Developmental Therapeutics Program Chemical Repository. The FDA-approved anticancer drug set is available from the NCI Developmental Therapeutics Program. […] The stock solutions were prepared in dimethyl sulfoxide (DMSO, Sigma-Aldrich, St. Louis, MO, cat. D2650) at 800-fold the tested concentration and stored at -70 degrees C prior to their use. All drugs and investigational agents were tested over a range starting from a high concentration at or near the clinical Cmax and decreasing in half-log increments. If the clinical Cmax for an agent had not been determined, the highest concentration tested was 10 microM.
Cell Culture. All cells were maintained in an incubator at 37 degrees C and 5% CO2 with 95% humidity. The PDC lines were cultured according to standard operating procedures established by the NCI PDMR. All PDCs were thawed and cultured in Matrigel-coated flasks prepared with a working solution of 1X Ham's F-12 nutrient mix, without supplementation (Invitrogen, Waltham, MA, cat. 11765054), 100 U/mL penicillin-streptomycin (Invitrogen, cat. 15140122), and 2.5% Matrigel (Corning Inc., Corning, NY, cat. 354248) for the first three passages. The 362531-283-R-J2-PDC and 782815-120-R-J1-PDC lines were cultured in 6C/Colon 1B media, which includes advanced DMEM/F-12 (Thermo Fisher Scientific, cat. 12634028), 10 mM HEPES (Thermo Fisher Scientific, cat. 15630080), 1X GlutaMAX supplement (Thermo Fisher Scientific, cat. 35050061), 0.1 mg/mL primocin (InvivoGen, San Diego, CA, cat. ant-pm-2), 10% defined fetal bovine serum, heat inactivated (HyClone Laboratories Inc., Logan, UT, cat. SH30070.03HI), 50% L-WRN conditioned media (ATCC, cat. CRL-3276), 1.25 mM N-Acetyl-L-cysteine (Sigma-Aldrich, cat. A9165), 10 mM nicotinamide (Sigma-Aldrich, cat. N0636), 1X B-27 supplement (Thermo Fisher Scientific, cat. 17504044), 1X N-2 supplement (Thermo Fisher Scientific, cat. 17502048), 50 ng/mL human EGF (Thermo Fisher Scientific, cat. PHG0311), and 10 microM Y-27632 dihydrochloride (Tocris Bioscience, cat. 1254). The K12877-001-R-J1-PDC line was cultured in 6I media, which includes all 6C/Colon 1B media plus 10 ng/mL human FGF-10 (PeproTech, cat. 100-26), 1 ng/mL human FGF-2 (PeproTech, cat. 100-18B), 1 µM prostaglandin E2 (Tocris Bioscience, cat. 2296), […] hydrocortisone (Sigma-Aldrich, cat. H4001), and […] bovine insulin (Sigma-Aldrich, cat. I6634). The K86415-001-R-J1-PDC line was cultured in 6D media, which includes all 6C/Colon 1B media components minus the L-WRN conditioned media. The 485176-168-R4-J1-PDC was cultured in PANC media, which includes all 6C/Colon 1B media plus 100 ng/mL human FGF-10 (PeproTech, cat. 100-26), 500 nM SB-431542 (Selleckchem, cat. S1067), and 10 nM gastrin (Tocris Bioscience, cat. 3006). […]

[1] = second compound 0.0316 µM, first compound 0.0316 µM
[2] = second compound 0.0316 µM, first compound 0.1 µM
[3] = second compound 0.0316 µM, first compound 0.316 µM
[4] = second compound 0.0316 µM, first compound 1 µM
[5] = second compound 0.0316 µM, first compound 3.16 µM
[6] = second compound 0.0316 µM, first compound 10 µM
[7] = second compound 0.1 µM, first compound 0.0316 µM
[8] = second compound 0.1 µM, first compound 0.1 µM
[9] = second compound 0.1 µM, first compound 0.316 µM
[10] = second compound 0.1 µM, first compound 1 µM
[11] = second compound 0.1 µM, first compound 3.16 µM
[12] = second compound 0.1 µM, first compound 10 µM
[13] = second compound 0.316 µM, first compound 0.0316 µM
[14] = second compound 0.316 µM, first compound 0.1 µM
[15] = second compound 0.316 µM, first compound 0.316 µM
[16] = second compound 0.316 µM, first compound 1 µM
[17] = second compound 0.316 µM, first compound 3.16 µM
[18] = second compound 0.316 µM, first compound 10 µM
[19] = second compound 1 µM, first compound 0.0316 µM
[20] = second compound 1 µM, first compound 0.1 µM
[21] = second compound 1 µM, first compound 0.316 µM
[22] = second compound 1 µM, first compound 1 µM
[23] = second compound 1 µM, first compound 3.16 µM
[24] = second compound 1 µM, first compound 10 µM
[25] = second compound 3.16 µM, first compound 0.0316 µM
[26] = second compound 3.16 µM, first compound 0.1 µM
[27] = second compound 3.16 µM, first compound 0.316 µM
[28] = second compound 3.16 µM, first compound 1 µM
[29] = second compound 3.16 µM, first compound 3.16 µM
[30] = second compound 3.16 µM, first compound 10 µM
[31] = second compound 10 µM, first compound 0.0316 µM
[32] = second compound 10 µM, first compound 0.1 µM
[33] = second compound 10 µM, first compound 0.316 µM
[34] = second compound 10 µM, first compound 1 µM
[35] = second compound 10 µM, first compound 3.16 µM
[36] = second compound 10 µM, first compound 10 µM
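Note: spheroids exposed to compounds for 7 days before reading.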
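Throughout, for viability, T/C: 100% = DMSO vehicle control viability.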

With CC1(O)CCCC1n1c(=O)c(C(F)F)cc2cnc(NC3CCN(S(C)(=O)=O)CC3)nc21 (stereo unspecified) + C#Cc1c(F)ccc2cc(O)cc(-c3ncc4c(N5CC6CCC(C5)N6)nc(OCC56CCCN5CC(F)C6)nc4c3F)c12 the IC50 (second compound 0.0316 µM) was 6.05 µM, the IC50 (second compound 0.1 µM) was 4.76 µM and the IC50 (second compound 0.316 µM) was 5.35 µM. For the same compound, the IC50 (second compound 1 µM) was 5.29 µM, the IC50 (second compound 3.16 µM) was 5.79 µM and the IC50 (second compound 10 µM) was 4.9 µM. For the same compound, the viability, T/C [1] was 73.7%, the viability, T/C [2] was 74.5% and the viability, T/C [3] was 65.7%. It also gave a viability, T/C [4] of 76%, a viability, T/C [5] of 68.8% and a viability, T/C [6] of 35.1%. The viability, T/C [7] was 83.1%, the viability, T/C [8] was 75.2% and the viability, T/C [9] was 68.8%. For the same compound, the viability, T/C [10] was 62.8%, the viability, T/C [11] was 66.4% and the viability, T/C [12] was 32.6%. For the same compound, the viability, T/C [13] was 78.6%, the viability, T/C [14] was 79.7% and the viability, T/C [15] was 69.2%. For the same compound, the viability, T/C [16] was 69.2%, the viability, T/C [17] was 65.6% and the viability, T/C [18] was 34.4%. For the same compound, the viability, T/C [19] was 88.5%, the viability, T/C [20] was 77.7% and the viability, T/C [21] was 75.4%. For the same compound, the viability, T/C [22] was 69.5%, the viability, T/C [23] was 70.7% and the viability, T/C [24] was 28.6%. The viability, T/C [25] was 77.5%, the viability, T/C [26] was 67.4% and the viability, T/C [27] was 68.7%. The viability, T/C [28] was 71%, the viability, T/C [29] was 79.1% and the viability, T/C [30] was 29.5%. For the same compound, the viability, T/C [31] was 70.7%, the viability, T/C [32] was 65.8% and the viability, T/C [33] was 65.5%. It also gave a viability, T/C [34] of 67.3%, a viability, T/C [35] of 74.3% and a viability, T/C [36] of 19.5%.

CCN1CCN(Cc2ccc(Nc3ncc(F)c(-c4cc(F)c5nc(C)n(C(C)C)c5c4)n3)nc2)CC1 + C#Cc1c(F)ccc2cc(O)cc(-c3ncc4c(N5CC6CCC(C5)N6)nc(OCC56CCCN5CC(F)C6)nc4c3F)c12 gave an IC50 (second compound 0.0316 µM) of over 1 µM, an IC50 (second compound 0.1 µM) of over 1 µM and an IC50 (second compound 0.316 µM) of over 1 µM. It also gave an IC50 (second compound 1 µM) of over 1 µM, an IC50 (second compound 3.16 µM) of over 1 µM and an IC50 (second compound 10 µM) of over 1 µM. For the same compound, the viability, T/C (second compound 0.0316 µM, first compound 0.00316 µM) was 103%, the viability, T/C (second compound 0.0316 µM, first compound 0.01 µM) was 105% and the viability, T/C [1] was 112%. It also gave a viability, T/C [2] of 102%, a viability, T/C [3] of 109% and a viability, T/C [4] of 123%. For the same compound, the viability, T/C (second compound 0.1 µM, first compound 0.00316 µM) was 107%, the viability, T/C (second compound 0.1 µM, first compound 0.01 µM) was 104% and the viability, T/C [7] was 95.8%. It also gave a viability, T/C [8] of 104%, a viability, T/C [9] of 113% and a viability, T/C [10] of 130%. It also gave a viability, T/C (second compound 0.316 µM, first compound 0.00316 µM) of 108%, a viability, T/C (second compound 0.316 µM, first compound 0.01 µM) of 101% and a viability, T/C [13] of 100%. It also gave a viability, T/C [14] of 110%, a viability, T/C [15] of 106% and a viability, T/C [16] of 119%. It also gave a viability, T/C (second compound 1 µM, first compound 0.00316 µM) of 110%, a viability, T/C (second compound 1 µM, first compound 0.01 µM) of 109% and a viability, T/C [19] of 108%. It also gave a viability, T/C [20] of 103%, a viability, T/C [21] of 111% and a viability, T/C [22] of 113%. The viability, T/C (second compound 3.16 µM, first compound 0.00316 µM) was 103%, the viability, T/C (second compound 3.16 µM, first compound 0.01 µM) was 99.2% and the viability, T/C [25] was 101%. For the same compound, the viability, T/C [26] was 104%, the viability, T/C [27] was 128% and the viability, T/C [28] was 119%. It also gave a viability, T/C (second compound 10 µM, first compound 0.00316 µM) of 109%, a viability, T/C (second compound 10 µM, first compound 0.01 µM) of 107% and a viability, T/C [31] of 95.3%. It also gave a viability, T/C [32] of 107%, a viability, T/C [33] of 120% and a viability, T/C [34] of 125%.

C[C@@H](NC(=O)c1ncnc(N)c1Cl)c1ncc(C(=O)Nc2cc(C(F)(F)F)c(Cl)cn2)s1 + C#Cc1c(F)ccc2cc(O)cc(-c3ncc4c(N5CC6CCC(C5)N6)nc(OCC56CCCN5CC(F)C6)nc4c3F)c12 showed an IC50 (second compound 0.0316 µM) of over 10 µM, an IC50 (second compound 0.1 µM) of over 10 µM and an IC50 (second compound 0.316 µM) of over 10 µM. It also gave an IC50 (second compound 1 µM) of over 10 µM, an IC50 (second compound 3.16 µM) of over 10 µM and an IC50 (second compound 10 µM) of over 10 µM. For the same compound, the viability, T/C [1] was 105%, the viability, T/C [2] was 101% and the viability, T/C [3] was 108%. For the same compound, the viability, T/C [4] was 90.7%, the viability, T/C [5] was 85.2% and the viability, T/C [6] was 72.3%. For the same compound, the viability, T/C [7] was 98.5%, the viability, T/C [8] was 111% and the viability, T/C [9] was 96.4%. It also gave a viability, T/C [10] of 99.1%, a viability, T/C [11] of 81.4% and a viability, T/C [12] of 71.4%. It also gave a viability, T/C [13] of 104%, a viability, T/C [14] of 108% and a viability, T/C [15] of 96.7%. For the same compound, the viability, T/C [16] was 95.9%, the viability, T/C [17] was 80.4% and the viability, T/C [18] was 70.5%. The viability, T/C [19] was 105%, the viability, T/C [20] was 114% and the viability, T/C [21] was 111%. It also gave a viability, T/C [22] of 82.5%, a viability, T/C [23] of 71.1% and a viability, T/C [24] of 61.5%. The viability, T/C [25] was 99.3%, the viability, T/C [26] was 101% and the viability, T/C [27] was 91.6%. It also gave a viability, T/C [28] of 87.3%, a viability, T/C [29] of 76.4% and a viability, T/C [30] of 65.7%. For the same compound, the viability, T/C [31] was 105%, the viability, T/C [32] was 100% and the viability, T/C [33] was 92.8%. For the same compound, the viability, T/C [34] was 86.2%, the viability, T/C [35] was 71.6% and the viability, T/C [36] was 57.2%.
